# Reference: patent US20100048714A1, “Methods and Compositions Related to Inhibition of Ceramide Synthesis” (University of Utah Research Foundation, priority 2006, published 2010)
# Columns and labels:
# [1] = tested on: Sprague-Dawley rats; experiment: Liver ceramide and ceramide-enzyme expression in dexamethasone-treated rats; format: in vivo, rat; details: dexamethasone 40 μg/Kg IP every 12 hours for 36 hours; myriocin 300 μg/Kg IP for two weeks prior
# Description: (A) Sprague-Dawley rats were treated with myriocin (300 μg/Kg, IP, solid bars) or saline (open bars) for two weeks prior to giving administering dexamethasone (40 μg/Kg, IP) or vehicle (5% ethanol) every 12 hours for 36 hours. Animals were euthanized by CO2 inhalation, livers were removed, and ceramide levels were assessed as described in SOM-Methods. Shown are mean ceramide levels+/−S.E.M, n=6 per group. The asterisk denotes that the sample was statistically different from vehicle-treated controls, p<0.05, student's t-test. (B) Livers were obtained as in A, above, and protein and mRNA were extracted as described in SOM-Methods. Levels of transcripts (solid bars) encoding serine palimitoyl transferase isoforms 1 and 2 (SPT1 and SPT2), dihydroceramide synthases (DCS) TL1, UOG, and TRH3, glucosylceramide synthase (GCS), and acid ceramidase (AC) transcripts were obtained by reverse-transcriptase polymerase chain reaction, normalized to β-actin. SPT2 protein levels (white bars) were detected by immunoblotting with an antibody from Cayman Chemicals (Ann Arbor, Mich.) and quantified on a Kodak Image Station 2000R (Rochester, N.Y.). […] (E) The glucose infusion rate required to maintain normal glycemia during insulin infusion (4mU/kg/min) was calculated as the average infusion rate during the 60 minute steady state. […]
# [2] = tested on: Sprague-Dawley rats; experiment: Glucose tolerance test (glucose 1 g/kg IP) in dexamethasone-treated rats; format: in vivo, rat
# Description: (§1) (A) Sprague-Dawley rats were treated with myriocin (300 μg/Kg, IP, solid bars) or saline (open bars) for two weeks prior to giving administering dexamethasone (40 μg/Kg, IP) or vehicle (5% ethanol) every 12 hours for 36 hours. Animals were euthanized by CO2 inhalation, livers were removed, and ceramide levels were assessed as described in SOM-Methods. Shown are mean ceramide levels+/−S.E.M, n=6 per group. The asterisk denotes that the sample was statistically different from vehicle-treated controls, p<0.05, student's t-test. (B) Livers were obtained as in A, above, and protein and mRNA were extracted as described in SOM-Methods. Levels of transcripts (solid bars) encoding serine palimitoyl transferase isoforms 1 and 2 (SPT1 and SPT2), dihydroceramide synthases (DCS) TL1, UOG, and TRH3, glucosylceramide synthase (GCS), and acid ceramidase (AC) transcripts were obtained by reverse-transcriptase polymerase chain reaction, normalized to β-actin. SPT2 protein levels (white bars) were detected by immunoblotting with an antibody from Cayman Chemicals (Ann Arbor, Mich.) and quantified on a Kodak Image Station 2000R (Rochester, N.Y.). Data represent the fold-change in transcript or protein in dexamethasone-treated animals relative to vehicle controls. […] (C and D) Rats were challenged with glucose (1 g/kg) given intraperitoneally (IP) following treatment with dexamethasone (squares), ethanol carrier (triangles), myriocin (open shapes), or saline (solid shapes) as in A, above. Tail vein blood (3 μl) was sampled for glucose (C)(using the Glucometer Elite from Bayer Corp., Tarrytown, N.Y.) or insulin (D) (using an Elisa kit from Linco Diagnostics, Springfield, Mo.). […] (E-G) Hyperinsulinemic euglycemic clamps were performed on animals (n=4 per group) treated as in A, above, as described in SOM-Methods. Data from animals receiving myriocin are depicted in solid bars. (E) The glucose infusion rate required to maintain normal glycemia during insulin infusion ([…]) was calculated as the average infusion rate during the 60 minute steady state. (F) Hepatic glucose output was estimated by the disappearance of [^14C] glucose from a bolus dose given during the steady state minus the glucose infusion rate. (G) Disappearance of a bolus dose of [^3H] 2-deoxyglucose from the bloodstream was used to estimate the rate of whole body glucose uptake.
# Tail vein blood (3 μl) was sampled for glucose determination (Hitachi 911 clinical chemistry analyzer, Roche, Indianapolis, Ind. or Glucometer Elite, Bayer Corp., Tarrytown, N.Y.)-30 minutes, immediately before and 15, 30, 45, 60, 90, and 120 min after glucose administration. Additionally, serum was collected and analyzed for insulin by Elisa (Linco Diagnostics, Springfield, Mo.).
# [3] = tested on: male Sprague Dawley Rats; experiment: Insulin tolerance test in dexamethasone-treated rats; format: in vivo, rat; details: dexamethasone 400 μg/kg IP 24 and 12 hours prior; myriocin 0.3 mg/kg/2 days for 1 week
# Description: Following an overnight fast, insulin was injected (20 U, IP) and whole blood glucose was determined by glucometer. Values are presented as the ratio of measured blood glucose to fasting blood glucose.
# (§2) To definitively evaluate effects on insulin sensitivity, as well as to distinguish whether the treatment protocols differentially affected glucose uptake in skeletal muscle or hepatic output by the liver, hyperinsulinemic-euglycemic clamps with D-[U-^14C] glucose and 2-deoxy-D-[2,6-^3H] glucose tracers were performed.
# [4] = tested on: Sprague dawley rats; experiment: Hyperinsulinemic euglycemic clamps of dexamethasone treated rats; format: in vivo, rat; details: for Insulin, During Clamp / FFA / Glucose, Before Clamp / Insulin, Before Clamp: plasma, mean ± standard error, n=4; for Insulin, During Clamp: steady state; for FFA: Before Clamp by layout
# Description: as §1, §2
# Clamps were performed in conscious unrestrained animals using swivels and tethers (Instech, Plymouth Meeting, Pa.) to allow uninterrupted movement of the animal without disruption of infusion lines. Hyperinsulinemia was initiated by intravenous infusion of insulin (10 mU/kg/min at a flow rate of 4 μL/min). Blood was sampled from arterial lines in 7 minute intervals and analyzed with a Beckman Glucose analyzer II (Beckman Coulter, Fullerton, Calif.). Euglycemia was maintained by variable infusion of 20% dextrose. Steady state was achieved approximately 90 minutes after initiating hyperinsulinemia and maintained for 30 minutes. Glucose infusion rates were calculated as the average glucose infusion rate during the 30 minute steady state. Additional blood samples were taken before initiating hyperinsulinemia and at the end of the clamp for analysis of insulin and free fatty acids.
# [5] = tested on: Zucker Diabetic Fatty (ZDF) rats; experiment: Myriocin treatment of Zucker Diabetic Fatty rats; format: in vivo, rat
# [6] = tested on: Zucker fa/fa rat; experiment: Myriocin in non-diabetic insulin resistance model, Zucker fa/fa rat; format: in vivo
# [7] = tested on: DIO mice; experiment: Myriocin in non-diabetic insulin resistance model, DIO mice; format: in vivo
# [8] = tested on: Sprague dawley rats; experiment: Hyperinsulinemic euglycemic clamps of dexamethasone treated rats; format: in vivo, rat; details: plasma, 60 minute steady state, mean ± standard error, n=4
# [9] = tested on: soleus muscles; experiment: Isolated soleus muscle strips incubated with free fatty acids; details: cycloserine 1 mM or myriocin 10 μM
# [10] = dexamethasone with or without myriocin pretreatment
# [11] = glucose challenge 1 g/kg IP, n=6 per group, p<0.05
# [12] = clamp, dexamethasone with or without myriocin pretreatment
# [13] = Dexamethasone-treated (Saline or Myriocin)
# [14] = treatment starting at week 8, vs vehicle
compound,measurement,setting,value
CCCCCCC(=O)CCCCCC/C=C/C[C@@H](O)[C@H](O)[C@@](N)(CO)C(=O)O [Myriocin],ceramide levels in the liver,[1],Reducing ceramide levels
same,glucose disposal / glucose intolerance in glucose tolerance test,[2]; [10],significantly negated glucocorticoid-induced glucose intolerance
same,insulin levels during glucose tolerance test,[2]; [10],normalized circulating insulin concentrations
same,"area under the curve, glucose",[2]; [11],significantly lowered the area under the curve
same,"area under the curve, insulin",[2]; [11],significantly lowered the area under the curve
same,insulin sensitivity in insulin tolerance tests,[3],fully negated
same,2-deoxyglucose uptake into skeletal muscle / insulin resistance in skeletal muscle,[4]; [12],partially blocked
same,insulin-induced suppression of hepatic glucose output,[4]; [12],completely prevented
same,"insulin-responsiveness (glucose infusion rate, hepatic glucose output, whole body glucose uptake; FIG. 1E-G)","[4]; clamp, n=4 per group, p<0.05",significantly restored insulin-responsiveness
same,"Insulin, During Clamp",[4]; [13],5.4 ± 1.4 ng/mL
same,"Insulin, During Clamp",[4]; Dexamethasone: Control,6.4 ± 0.5 ng/mL
same,FFA,[4]; [13],176 ± 34 µM
same,FFA,[4]; Dexamethasone: Control,258 ± 29 µM
same,"Glucose, Before Clamp",[4]; [13],137.0 ± 2.1 mg/dL
same,"Insulin, Before Clamp",[4]; [13],2.34 ± 0.49 ng/mL
same,"Glucose, Before Clamp",[4]; Dexamethasone: Control,123.6 ± 7.7 mg/dL
same,"Insulin, Before Clamp",[4]; Dexamethasone: Control,2.05 ± 0.25 ng/mL
same,age until which the improvement in blood glucose persisted,[5]; ZDF rats,at least 16 weeks
same,"ceramides in liver, soleus and serum",[5]; ZDF rats,reduced levels of the sphingolipid in all these tissues
same,tolerability,"[5]; ZDF rats and lean controls, myriocin for up to 6 weeks",well-tolerated
same,glucose homeostasis,"[5]; male ZDF rats, myriocin 0.3 mg/kg IP every other day (FIG. 4 legend)",markedly improved glucose homeostasis
same,side effects,"[5]; rat, in vivo",no apparent side effects
same,onset of diabetes,[5]; treatment starting at week 8,prevented the onset of diabetes
same,plasma glucose levels,[5]; [14],reduced
same,triglyceride levels,[5]; [14],reduced
same,glucose homeostasis,[6],improved glucose homeostasis
same,insulin levels,[6],lowered insulin levels
same,glucose homeostasis,[7],improved glucose homeostasis
same,insulin levels,[7],lowered insulin levels
same,"Glucose, During Clamp",[8]; [13],129.3 ± 3.7 mg/dL
same,"Glucose, During Clamp",[8]; Dexamethasone: Control,130.5 ± 2.9 mg/dL
same,linoleate effects on 2-DOG uptake,[9]; 1 mM linoleate,did not alter linoleate effects
same,linoleate effects on DAG accumulation,[9]; 1 mM linoleate,did not alter linoleate effects
same,DAG in palmitate-treated muscles,[9]; 1 mM palmitate,without affecting DAG
same,palmitate effect on insulin-stimulated 2-deoxyglucose uptake,[9]; 1 mM palmitate,completely negated the antagonistic effects of palmitate
same,palmitate-induced ceramide accumulation,[9]; 1 mM palmitate,prevented palmitate-induced ceramide accumulation
